{
  "source": "patent US3959290A",
  "about": "“3,14-Substituted-8-oxamorphinans” (Bristol-Myers Company, priority 1974, dated 1976)",
  "key": {"[1]": {"test_system": "analgesic effect induced by morphine", "assay": "animal or person", "type": "in vivo", "settings": "morphine 15 mg./kg. sc., weights in terms of the free base; for ED50: Rattus norvegicus", "procedure": "(§1) In vivo testing was conducted on the compounds designated herein as XVc (racemic mixture), d-XVc (dextrorotatory isomer), l-XVc (levorotatory isomer) and dl-XVd (see examples for structures) to determine their agonist and/or antagonist properties. The figures reported are the number of milligrams/kilogram of body weight of compound that produced an agonist or antagonist effect in 50% of the mice and rats so tested (ED50).\n(§2) All the compounds were tested as the tartrates, but the weights reported in mg./kg. are corrected and reported in terms of the free base."}, "[2]": {"test_system": "Straub Tail induced by oxymorphone", "assay": "Antagonism of Straub Tail induced by oxymorphone in 50 per cent of mice", "type": "in vivo", "settings": "oxymorphone 2 mg./kg. sc., weights in terms of the free base; for ED50: Mus musculus", "procedure": "as §1, §2\n^2 Antagonism of Straub Tail induced by oxymorphone (2 mg./kg. sc.) in 50 per cent of mice."}, "[3]": {"test_system": "righting reflex loss induced by oxymorphone", "assay": "animal or person", "type": "in vivo", "settings": "Rattus norvegicus, rats, oxymorphone 1.5 mg./kg. sc., weights in terms of the free base", "procedure": "as §1, §2\n^3 Antagonism of righting reflex loss induced by oxymorphone (1.5 mg./kg. sc.) in 50 per cent of rats."}, "[4]": {"test_system": "phenylquinone induced writhings", "assay": "Phenylquinone writhing (50 per cent reduction in number of phenylquinone induced writhings), rat", "type": "in vivo", "settings": "weights in terms of the free base; for ED50: Rattus norvegicus", "procedure": "as §1, §2\n(§3) ^1 A 50 per cent reduction in number of phenylquinone induced writhings (Siegmund, E. A. et al., Proc. Soc. Biol. & Med. 95, 729; 1957)."}, "[5]": {"test_system": "phenylquinone induced writhings", "assay": "Phenylquinone writhing (50 per cent reduction in number of phenylquinone induced writhings), mouse", "type": "in vivo", "settings": "for ED50 / ED50 Agonist Activity, Phenylquinone Writhing, Mouse, SC: weights in terms of the free base", "procedure": "as §1, §2, §3"}, "[6]": {"assay": "In vivo testing for agonist and/or antagonist properties (overall conclusion from Table I)", "design": "species or system mice and rats", "settings": "parenteral and oral administration", "procedure": "as §1"}, "[7]": {"settings": "po, read-out: ED50 Antagonist Activity, Morphine Antagonism Rat Tail Flick, PO"}, "[8]": {"settings": "sc, read-out: ED50 Antagonist Activity, Morphine Antagonism Rat Tail Flick, SC"}, "[9]": {"settings": "sc, read-out: ED50 Antagonist Activity, Oxymorphone Straub Tail, SC"}, "[10]": {"settings": "SC, read-out: ED50 Antagonist Activity, Oxymorphone Narcosis, SC"}, "[11]": {"settings": "po, read-out: ED50 Agonist Activity, Phenylquinone Writhing, Rat, PO"}, "[12]": {"settings": "sc, read-out: ED50 Agonist Activity, Phenylquinone Writhing, Rat, SC"}, "[13]": {"settings": "Mus musculus, sc, read-out: ED50 Agonist Activity, Phenylquinone Writhing, Mouse, SC"}},
  "note": "Structures can show the parent of a compound that is named as a salt. Where two headings read alike, the source gives them in different places.",
  "data": [
    {"smiles": "C[C@@]12OCCC[C@@]13CCN(CC1CC1)[C@@H]2Cc1ccc(O)cc13", "note": "(racemic) [XVc tartrate, N-Cyclopropylmethyl-3-hydroxy-14β-methyl-8-oxamorphinan]", "values": [
      {"measurement": "ED50", "setting": "[1]; [7]", "value": 7.3, "unit": "mg/kg"},
      {"measurement": "ED50", "setting": "[1]; [8]", "value": 0.05, "unit": "mg/kg"},
      {"measurement": "ED50", "setting": "[2]; [9]", "value": 0.61, "unit": "mg/kg"},
      {"measurement": "ED50", "setting": "[3]; [10]", "value": 0.36, "unit": "mg/kg"},
      {"measurement": "ED50", "setting": "[4]; [11]", "value": 4, "unit": "mg/kg"},
      {"measurement": "ED50", "setting": "[4]; [12]", "value": 0.03, "unit": "mg/kg"},
      {"measurement": "ED50", "setting": "[5]; [13]", "value": 0.19, "unit": "mg/kg"}
    ]},
    {"smiles": "C=CCN1CC[C@]23CCCC[C@H]2[C@H]1Cc1ccc(O)cc13", "note": "[Levallorphan, reference compound]", "values": [
      {"measurement": "dose response, Phenylquinone Writhing, Mouse, SC", "setting": "[5]; SC, remark under the ED50", "value": "poor dose"},
      {"measurement": "ED50", "setting": "[5]; SC, read-out: ED50 Agonist Activity, Phenylquinone Writhing, Mouse, SC", "value": 26.3, "unit": "mg/kg"}
    ]},
    {"smiles": "C=CCN1CC[C@]23c4c5ccc(O)c4O[C@H]2[C@@H](O)C=C[C@H]3[C@H]1C5", "note": "[Nalorphine, reference compound]", "values": [
      {"measurement": "ED50", "setting": "[2]; [9]", "value": 1.14, "unit": "mg/kg"}
    ]},
    {"smiles": "CC(C)=CCN1CCC2(C)c3cc(O)ccc3CC1C2C", "note": "(stereo not shown) [Pentazocine, reference compound]", "values": [
      {"measurement": "ED50", "setting": "[1]; [8]", "value": 12.2, "unit": "mg/kg"},
      {"measurement": "ED50", "setting": "[3]; [10]", "value": 10, "unit": "mg/kg"}
    ]},
    {"smiles": "C[C@@]12OCCC[C@@]13CCN(CC1CC1)[C@@H]2Cc1ccc(O)cc13", "note": "[d-XVc tartrate, N-Cyclopropylmethyl-3-hydroxy-14β-methyl-8-oxamorphinan]", "values": [
      {"measurement": "ED50 Antagonist Activity, Morphine Antagonism Rat Tail Flick, SC", "setting": "[1]", "value": "> 20", "unit": "mg/kg"},
      {"measurement": "ED50 Antagonist Activity, Oxymorphone Straub Tail, SC", "setting": "[2]", "value": "> 10", "unit": "mg/kg"},
      {"measurement": "ED50 Agonist Activity, Phenylquinone Writhing, Mouse, SC", "setting": "[5]; SC", "value": "> 40", "unit": "mg/kg"}
    ]},
    {"smiles": "C[C@@]12OCCC[C@@]13CCN(CC1CC1)[C@@H]2Cc1ccc(O)cc13", "note": "[l-XVc tartrate, N-Cyclopropylmethyl-3-hydroxy-14β-methyl-8-oxamorphinan]", "values": [
      {"measurement": "ED50", "setting": "[1]; [7]", "value": 6.3, "unit": "mg/kg"},
      {"measurement": "ED50 Antagonist Activity, Morphine Antagonism Rat Tail Flick, SC", "setting": "[1]", "value": 0.021, "unit": "mg/kg"},
      {"measurement": "ED50", "setting": "[2]; po, read-out: ED50 Antagonist Activity, Oxymorphone Straub Tail, PO", "value": 14.6, "unit": "mg/kg"},
      {"measurement": "ED50 Antagonist Activity, Oxymorphone Straub Tail, SC", "setting": "[2]", "value": "≈ 0.2 mg./kg."},
      {"measurement": "ED50", "setting": "[3]; PO, read-out: ED50 Antagonist Activity, Oxymorphone Narcosis, PO", "value": 1.25, "unit": "mg/kg"},
      {"measurement": "ED50", "setting": "[3]; [10]", "value": 0.014, "unit": "mg/kg"},
      {"measurement": "ED50", "setting": "[4]; [11]", "value": 1.3, "unit": "mg/kg"},
      {"measurement": "ED50 Agonist Activity, Phenylquinone Writhing, Rat, SC", "setting": "[4]; SC", "value": 0.02, "unit": "mg/kg"},
      {"measurement": "agonist and antagonist activity", "setting": "[6]", "value": "potent agonist and antagonist activity"},
      {"measurement": "ED50", "setting": "[5]; Mus musculus, po, read-out: ED50 Agonist Activity, Phenylquinone Writhing, Mouse, PO", "value": 2.7, "unit": "mg/kg"},
      {"measurement": "ED50 Agonist Activity, Phenylquinone Writhing, Mouse, SC", "setting": "[5]; SC", "value": 0.11, "unit": "mg/kg"}
    ]},
    {"smiles": "Cl.Oc1ccc2c(c1)[C@@]13CCCO[C@H]1[C@H](C2)N(CC1CC1)CC3", "note": "[l-XVk hydrochloride, l-N-cyclopropylmethyl-3-hydroxy-8-oxamorphinan hydrochloride]", "values": [
      {"measurement": "ED50", "setting": "[1]; [8]", "value": 0.97, "unit": "mg/kg"},
      {"measurement": "ED50", "setting": "[2]; [9]", "value": 0.2, "unit": "mg/kg"},
      {"measurement": "ED50", "setting": "[3]; [10]", "value": 0.03, "unit": "mg/kg"},
      {"measurement": "ED50", "setting": "[4]; [12]", "value": 0.009, "unit": "mg/kg"},
      {"measurement": "ED50", "setting": "[5]; [13]", "value": 0.013, "unit": "mg/kg"}
    ]}
  ]
}
